Data on 16 molecules can be found in patent publication US11458123B2 (Arvinas, Inc., priority 2016, dated 2022).

The first assay has as its system tau protein. In words: Tau protein in vitro degradation assay (Western blot, Tau-13 antibody). In kind it is cell-based, human. The conditions noted are these: SK-N-SH cells; 72 hours of incubation; tested at 300 nM, 100 nM, 33 nM and 11 nM; Western blot, Tau-13 antibody. The method, then:
Tau Protein In Vitro Degradation Assay
To determine effect of PROTACs on tau protein degradation SK-N-SH cells were seeded in a 24-well tissue culture-treated plate for at least 18-hours prior to compound addition. Tau PROTACs were evaluated for tau degradation by lysing the cells in lysis buffer with protease inhibitors following a 72-hour incubation with tau PROTACs at 1000 nM, 300 nM and 100 nM for Table 1 and 300 nM, 100 nM, 33 nM and 11 nM for Table 2. Cell lysates were run on standard SDS-PAGE gels, and tau levels were detected by Western blotting using Tau-13 antibody from Abcam (Cambridge, UK) that binds to all forms of human tau.
For orientation: Immunoblotting shows a protein as a band on a membrane.
As for `Cn1c2ccncc2c2ccc(-c3ccc(O[C@H]4C[C@H](Oc5cnc(C#CCCCCOc6ccc7c(c6)C(=O)N(C6CCC(=O)NC6=O)C7=O)nc5)C4)nc3)cc21` (stereo partly shown) [Compound 141, 2-(2,6-dioxopiperidin-3-yl)-5-((6-(5-((1r,3r)-3-((5-(5-methyl-5H-pyrido[4,3-b]indol-7-yl)pyridin-2-yl)oxy)cyclobutoxy)pyrimidin-2-yl)hex-5-yn-1-yl)oxy)isoindoline-1,3-dione], the “Degradation activity* (highest amount of degradation observed at any dosage; tau protein remaining)” value was “C (>80% tau protein remaining after 72 hours of incubation with the test compound)”.

On to `Cn1c2ccncc2c2ccc(-c3ccc(O[C@H]4C[C@H](OCCOCCOC5CC6(C5)CN(c5ccc7c(c5)C(=O)N(C5CCC(=O)NC5=O)C7=O)C6)C4)nc3)cc21` (stereo partly shown) [Compound 213, 2-(2,6-dioxopiperidin-3-yl)-5-(6-(2-(2-((1r,3r)-3-((5-(5-methyl-5H-pyrido[4,3-b]indol-7-yl)pyridin-2-yl)oxy)cyclobutoxy)ethoxy)ethoxy)-2-azaspiro[3.3]heptan-2-yl)isoindoline-1,3-dione], for which the “Degradation activity (tau protein remaining; highest amount of degradation observed at any dosage)” value is listed as “C (>80% tau protein remaining after 72 hours of incubation with the test compound)”.

As for `O=C1CCC(N2C(=O)c3ccc(OCCCCCc4ccc(O[C@H]5C[C@H](Oc6ccc(-c7ccc8c(c7)[nH]c7ccncc78)cn6)C5)cn4)cc3C2=O)C(=O)N1` (stereo partly shown) [Compound 83, 5-((5-(5-((1r,3r)-3-((5-(5H-pyrido[4,3-b]indol-7-yl)pyridin-2-yl)oxy)cyclobutoxy)pyridin-2-yl)pentyl)oxy)-2-(2,6-dioxopiperidin-3-yl)isoindoline-1,3-dione], the “Degradation activity* (highest amount of degradation observed at any dosage; tau protein remaining)” value was “C (>80% tau protein remaining after 72 hours of incubation with the test compound)”.

With `Cn1c2ccncc2c2ccc(-c3ccc(OC4CN(C(=O)C56CC(CCCCCCCOc7ccc8c(c7)C(=O)N(C7CCC(=O)NC7=O)C8=O)(C5)C6)C4)nc3)cc21` (stereo not shown) [Compound 184, 2-(2,6-dioxopiperidin-3-yl)-5-((7-(3-(3-((5-(5-methyl-5H-pyrido[4,3-b]indol-7-yl)pyridin-2-yl)oxy)azetidine-1-carbonyl)bicyclo[1.1.1]pentan-1-yl)heptyl)oxy)isoindoline-1,3-dione], the “Degradation activity (tau protein remaining; highest amount of degradation observed at any dosage)” value is “A (≤50% tau protein remaining after 72 hours of incubation with the test compound)”.

In the case of `Cn1c2ccncc2c2ccc(-c3ccc(O[C@H]4C[C@H](Oc5ccnc(OCCCCCCOc6ccc7c(c6)C(=O)N(C6CCC(=O)NC6=O)C7=O)c5)C4)nc3)cc21` (stereo partly shown) [Compound 109, 2-(2,6-dioxopiperidin-3-yl)-5-((6-((4-((1r,3r)-3-((5-(5-methyl-5H-pyrido[4,3-b]indol-7-yl)pyridin-2-yl)oxy)cyclobutoxy)pyridin-2-yl)oxy)hexyl)oxy)isoindoline-1,3-dione], the “Degradation activity* (highest amount of degradation observed at any dosage; tau protein remaining)” value is “C (>80% tau protein remaining after 72 hours of incubation with the test compound)”.

In the case of `Cn1c2ccncc2c2ccc(-c3ccc(OCCCCCOCCCCCN4CC(Oc5ccc6c(c5)C(=O)N(C5CCC(=O)NC5=O)C6=O)C4)nc3)cc21` (stereo not shown) [Compound 80, 2-(2,6-dioxopiperidin-3-yl)-5-((1-(5-((5-((5-(5-methyl-5H-pyrido[4,3-b]indol-7-yl)pyridin-2-yl)oxy)pentyl)oxy)pentyl)azetidin-3-yl)oxy)isoindoline-1,3-dione], the “Degradation activity* (highest amount of degradation observed at any dosage; tau protein remaining)” value was “A (≤50% tau protein remaining after 72 hours of incubation with the test compound)”.

Take `O=C1CCC(N2C(=O)c3ccc(OCCOCC#Cc4ccc(O[C@H]5C[C@H](Oc6ccc(-c7ccc8c(c7)[nH]c7ccncc78)cn6)C5)cc4)cc3C2=O)C(=O)N1` (stereo partly shown) [Compound 188, 5-(2-((3-(4-((1r,3r)-3-((5-(5H-pyrido[4,3-b]indol-7-yl)pyridin-2-yl)oxy)cyclobutoxy)phenyl)prop-2-yn-1-yl)oxy)ethoxy)-2-(2,6-dioxopiperidin-3-yl)isoindoline-1,3-dione]: the “Degradation activity (tau protein remaining; highest amount of degradation observed at any dosage)” value is “B (≤80% and >50% tau protein remaining after 72 hours of incubation with the test compound)”.

With `Cn1c2ccncc2c2ccc(-c3ccc(O[C@H]4C[C@H](Oc5cccc(OCCCCCCOc6ccc7c(c6)C(=O)N(C6CCC(=O)NC6=O)C7=O)c5)C4)nc3)cc21` (stereo partly shown) [Compound 84, 2-(2,6-dioxopiperidin-3-yl)-5-((6-(3-((1r,3r)-3-((5-(5-methyl-5H-pyrido[4,3-b]indol-7-yl)pyridin-2-yl)oxy)cyclobutoxy)phenoxy)hexyl)oxy)isoindoline-1,3-dione], the “Degradation activity* (highest amount of degradation observed at any dosage; tau protein remaining)” value was “C (>80% tau protein remaining after 72 hours of incubation with the test compound)”.

As to `Cn1c2ccncc2c2ccc(-c3ccc(O[C@H]4C[C@@H](Oc5ccc(CCCOC6CN(c7ccc8c(c7)C(=O)N(C7CCC(=O)NC7=O)C8=O)C6)nc5)C4)nc3)cc21` (stereo partly shown) [Compound 160, 2-(2,6-dioxopiperidin-3-yl)-5-(3-(3-(5-((1 s,3s)-3-((5-(5-methyl-5H-pyrido[4,3-b]indol-7-yl)pyridin-2-yl)oxy)cyclobutoxy)pyridin-2-yl)propoxy)azetidin-1-yl)isoindoline-1,3-dione], the “Degradation activity* (highest amount of degradation observed at any dosage; tau protein remaining)” value is “B (≤80% and >50% tau protein remaining after 72 hours of incubation with the test compound)”.

`Cc1cc(-c2ccc3c4cnccc4n(C)c3c2)cnc1OCCOCCOCCOCCOCCOc1ccc2c(c1)C(=O)N(C1CCC(=O)NC1=O)C2=O` (stereo not shown) [Compound 140, 2-(2,6-dioxopiperidin-3-yl)-5-((14-((3-methyl-5-(5-methyl-5H-pyrido[4,3-b]indol-7-yl)pyridin-2-yl)oxy)-3,6,9,12-tetraoxatetradecyl)oxy)isoindoline-1,3-dione]: the “Degradation activity* (highest amount of degradation observed at any dosage; tau protein remaining)” value is “A (≤50% tau protein remaining after 72 hours of incubation with the test compound)”.

With `O=C1CCC(N2C(=O)c3ccc(N4CC(OCCCOCCCO[C@H]5C[C@H](Oc6ccc(-c7ccc8c(c7)[nH]c7ccncc78)cn6)C5)C4)cc3C2=O)C(=O)N1` (stereo partly shown) [Compound 182, 5-(3-(3-(3-((1r,3r)-3-((5-(5H-pyrido[4,3-b]indol-7-yl)pyridin-2-yl)oxy)cyclobutoxy)propoxy)propoxy)azetidin-1-yl)-2-(2,6-dioxopiperidin-3-yl)isoindoline-1,3-dione], the “Degradation activity (tau protein remaining; highest amount of degradation observed at any dosage)” value is given as “A (≤50% tau protein remaining after 72 hours of incubation with the test compound)”.

As to `Cn1c2ccncc2c2ccc(-c3ccc(O[C@H]4C[C@H](OCCCCCCN5CCN(c6ccc7c(c6)C(=O)N(C6CCC(=O)NC6=O)C7=O)CC5)C4)nc3)cc21` (stereo partly shown) [Compound 78, 2-(2,6-dioxopiperidin-3-yl)-5-(4-(6-((1r,3r)-3-((5-(5-methyl-5H-pyrido[4,3-b]indol-7-yl)pyridin-2-yl)oxy)cyclobutoxy)hexyl)piperazin-1-yl)isoindoline-1,3-dione], the “Degradation activity* (highest amount of degradation observed at any dosage; tau protein remaining)” value is on record as “C (>80% tau protein remaining after 72 hours of incubation with the test compound)”.

The assay is the same for the next values; noted with them: SK-N-SH cells; 72 hours of incubation; tested at 1000 nM, 300 nM and 100 nM.
On to `Cc1ncoc1-c1ccc(CNC(=O)[C@@H]2C[C@@H](O)CN2C(=O)[C@@H](NC(=O)COCCOCCOCCN2CCN(c3ccn4c(n3)nc3ccccc34)CC2)C(C)(C)C)cc1` [Compound 11, (2S,4R)-1-((S)-14-(4-(benzo[4,5]imidazo[1,2-a]pyrimidin-2-yl)piperazin-1-yl)-2-(tert-butyl)-4-oxo-6,9,12-trioxa-3-azatetradecanoyl)-4-hydroxy-N-(4-(4-methyloxazol-5-yl)benzyl)pyrrolidine-2-carboxamide], for which the “Activity* (highest amount of degradation observed at any dosage, as tau protein remaining)” value is reported as “C (>80% tau protein remaining after 72 hours of incubation with the test compound)”.

In the case of `O=C1CCC(N2C(=O)c3cccc(NCCOCCOCCOCCOCCOc4ccc(-c5ccc6c(c5)[nH]c5ccncc56)cn4)c3C2=O)C(=O)N1` (stereo not shown) [Compound 4, 4-((14-((5-(5H-pyrido[4,3-b]indol-7-yl)pyridin-2-yl)oxy)-3,6,9,12-tetraoxatetradecyl)amino)-2-(2,6-dioxopiperidin-3-yl)isoindoline-1,3-dione], the “Activity* (highest amount of degradation observed at any dosage, as tau protein remaining)” value is “A (≤50% tau protein remaining after 72 hours of incubation with the test compound)”.

As for `CN(C)c1ccc(-c2ccc3cc(OCC(O)COCCOCCOCCOCCNc4cccc5c4C(=O)N(C4CCC(=O)NC4=O)C5=O)ccc3n2)cc1` (stereo not shown) [Compound 45, 4-(15-(2-(4-(dimethylamino)phenyl)quinolin-6-yloxy)-14-hydroxy-3,6,9,12-tetraoxapentadecylamino)-2-(2,6-dioxopiperidin-3-yl)isoindoline-1,3-dione], the “Activity* (highest amount of degradation observed at any dosage, as tau protein remaining)” value was “C (>80% tau protein remaining after 72 hours of incubation with the test compound)”.

Regarding `Cc1ncsc1-c1ccc([C@H](C)NC(=O)[C@@H]2C[C@@H](O)CN2C(=O)[C@@H](NC(=O)COCCOCCOCCOCCOc2ccc3nc(-c4ccc(N(C)C)cc4)ccc3c2)C(C)(C)C)cc1` [Compound 32, (2S,4R)-1-((S)-2-tert-butyl-17-(2-(4-(dimethylamino)phenyl)quinolin-6-yloxy)-4-oxo-6,9,12,15-tetraoxa-3-azaheptadecane)-4-hydroxy-N—((S)-1-(4-(4-methylthiazol-5-yl)phenyl)ethyl)pyrrolidine-2-carboxamide], the “Activity* (highest amount of degradation observed at any dosage, as tau protein remaining)” value is recorded as “C (>80% tau protein remaining after 72 hours of incubation with the test compound)”.
